Experimental data reported in patent publication EP0367040A1, “Compounds for the treatment of urinary incontinence” (Kabi Pharmacia AB, priority 1988, dated 1990).
Read-outs that look alike come from different tables or passages of the source.

What was measured:
rabbit papillary muscles = experiment: Electrically stimulated isolated papillary muscle (heart), contraction amplitude; format: cell-based; details: Oryctolagus cuniculus, read-out: El.stim. papillary muscle, % inhibition of 1 µM
From the text: The effects on heart were investigated by using isolated, rabbit papillary muscles, which were electrically stimulated at a submaximum frequency. The contraction amplitude was re­corded.

rabbit urinary bladder [1] = experiment: Anticholinergic effect on carbachol-stimulated isolated urinary bladder strips; format: cell-based; details: Oryctolagus cuniculus, read-out: Carbachol stim.rabbit urinary bladder KD
Experimental: (§1) Carbachol was used as an agonist and was added to the organ bath cumulatively.

albino mice = experiment: Mydriatic effect, pupil diameter in unanaesthetized mice after intravenous dosing; format: in vivo
Experimental: For studying the mydriatic effect of the compounds un­anaesthetized albino mice were used. The substance was given intravenously in different doses and the pupil diame­ter was measured by means of a microscope every tenth minute until the effect disappeared.

rabbit urinary bladder [2] = experiment: Inhibition of electrically induced contractions of isolated urinary bladder strips; format: cell-based; details: Oryctolagus cuniculus; electrically stimulated isolated rabbit bladder strips; only about half of the contractile response is mediated by cholinergic nerves; read-out: El.stim. rabbit urinary bladder IC50
Experimental: as §1

muscarinic receptors = experiment: Selectivity factor: isolated human urinary bladder versus human salivary gland (QNB radioligand); format: binding; details: quotient of inhibitory concentration on isolated human urinary bladder and human salivary gland; lower figure = higher selectivity for the bladder
From the text: The human salivary glands were obtained from patients undergoing operation for treatment of cancer in these glands. As the radioligand by which the muscarinic receptors were label led, QNB was used. The method is described in detail by S. Batra et al. in Psychopharmacology, 1986, 90, 1-4.

rabbit portal vein = experiment: Electrically induced submaximal contractions of isolated portal vein; format: cell-based; details: Oryctolagus cuniculus, read-out: El.stim. portal vein % inhibition by 1 µM
[3] = 1 µM, isolated rabbit papillary muscle, electrically stimulated
[4] = carbachol as agonist, added cumulatively, isolated rabbit bladder strips
[5] = 1 µM, isolated rabbit portal vein, electrically stimulated

Compound	inhibition at 1 µM (rabbit papillary muscles; [3])	Kb (rabbit urinary bladder [1]; [4])	Mydriatic effect, % dilatation by 1 mg/kg i.v. (albino mice)	IC50 (rabbit urinary bladder [2])	Selectivity factor for human urinary bladder in comparison with human salivary gland (muscarinic receptors)	inhibition at 1 µM (rabbit portal vein; [5])	inhibition at 1 µM (rabbit papillary muscles)	Kb (rabbit urinary bladder [1])	inhibition at 1 µM (rabbit portal vein)
CC(C)N(CCN(C)C(=O)C(c1ccccc1)c1ccccc1)C(C)C.Cl [Example No 3, N-methyl-N-(2-diisopropylaminoethyl)-2,2-diphenyl-acetamide hydrochloride]	8%	60 nM	2%	8500 nM	6	10%	–	–	–
CC(C)N(CCCN(C)C(=O)C(c1ccccc1)c1ccccc1)C(C)C [Example No 4, N-methyl-N-(3-diisopropylaminopropyl)-2,2 diphenylacetamide]	9%	550 nM	0%	35200 nM	5	4%	–	–	–
CN(CCCN(C)C(C)(C)C)C(=O)C(c1ccccc1)c1ccccc1.Cl [Example No 7, N-methyl-N-[3-(N-methyl-N-tert-butyl-amino)propyl]-2,2-diphenylacetamide hydrochloride]	0%	2900 nM	0%	25700 nM	2	4%	–	–	–
CC(CC(c1ccccc1)c1ccccc1)NC(C)(C)C (stereo not shown) [Terodiline, N-t-butyl-3,3-diphenyl-1-methylpropylamine, reference compound]	14%	220 nM	1%	14500 nM	93	4%	–	–	–
CCN(CC)CC#CCOC(=O)C(O)(c1ccccc1)C1CCCCC1 (stereo not shown) [Oxybutynin, 2-cyclohexyl-2-hydroxy-2-phenylacetic acid 4-(diethylamino)-2-butynyl ester, reference compound]	–	–	95%	–	–	–	3%	6 nM	6%
CN1[C@@H]2CC[C@H]1C[C@@H](OC(=O)C(CO)c1ccccc1)C2 (stereo partly shown) [Atropine, reference compound]	–	–	–	–	–	–	5%	2 nM	20%
CC(C)N(CCNC(=O)C(c1ccccc1)c1ccccc1)C(C)C [Example No 10, N-(2-diisopropylaminoetyl)-2,2-diphenylacetamide]	0%	110 nM	11%	5300 nM	6	10%	–	–	–
